Experimental data as given in a melting point compilation (Tetko et al.; mined from patent text by program, amines drawn as free bases though some values may be those of a salt).

SMILES	melting point
COc1ncc(NS(=O)(=O)c2cccc3c(N(C)C)cccc23)c(OC)n1	201 °C
CCC(NCCN)(C(=O)O)c1cccc(Cl)c1 (stereo unspecified)	207 to 208 °C
OCc1cc(CO)c(O)c(-c2ccccc2)c1	105 to 110 °C
O=C1CC(C(=O)O)(c2ccc(F)cc2)c2ccccc21 (stereo unspecified)	106 to 108 °C
Clc1ccc(CCC(Cn2ccnc2)OCC=Cc2ccccc2)cc1 (stereo unspecified)	115 to 116 °C
Nc1nc2c(ncn2COC(CO)COC(=O)C2(N)CC2)c(=O)[nH]1 (stereo unspecified)	> 300 °C
CNC(=O)C1CC2(CCN(CCCC(=O)c3ccc(F)cc3)C2)c2ccc(Cl)cc21 (stereo unspecified)	151 to 153 °C
CC(C)c1cc(O)cc2nc(-c3ccc(O)cc3)oc12	200 °C
Oc1ccc2c(CCC3CCN(Cc4ccccc4)CC3)noc2c1	148 to 149 °C
Cc1nnc(-c2sc(N3CCN(Cc4ccc(F)cc4)C3=O)nc2C)[nH]1	248 to 249 °C
CC(C)(C)OC(=O)N1CCC(O)(CS)CC1	54 to 55 °C
COc1ccc(Cl)cc1-c1c(N)c(=O)[nH]c2ccccc12	248 to 250 °C
Cn1ncc2c1-c1c(Cc3ccccc3)sc(C(N)=O)c1CC2	96 to 97 °C
CCOC(=O)C1=C(C)NC(C)=C(C(=O)OCCN2CCC(C(c3ccccc3)c3ccccc3)CC2)C1c1cccc(Cl)c1Cl (stereo unspecified)	81 to 85 °C
CC(=O)CCc1nc2c(N)nc3ccccc3c2n1CC(C)C	172 to 174 °C
CC(C)(C)OC(=O)N[C@@H](CC(=O)OCc1ccccc1)C(=O)NCCc1ccc(OCC(=O)OCc2ccccc2)cc1	178 to 180 °C
CS(=O)(=S)OCCC(=O)O (stereo unspecified)	44 to 46 °C
N#Cc1ccc(Nc2cc(Cc3c(Cl)cccc3Cl)nc(NCCCN3CCCC3=O)n2)cc1	104 to 114 °C
CCC(=O)N(c1ccc(C#N)cc1)c1c(NC(C)C(C)(C)C)c(=O)c1=O (stereo unspecified)	211 to 214 °C
Cc1nnc(-c2cc3c(OC[C@@H](O)CN4CCC(c5ccc6ccccc6c5)CC4)cccc3[nH]2)o1	215 to 217 °C
CCCn1cc(Cc2ccc(C(=O)O)cc2OC)c2cc(CC3CCCN(C)C3=O)ccc21 (stereo unspecified)	105 to 115 °C
CCC(CC)c1ccc(Cl)c2nc(Nc3cnc(OC)cc3C)n(CCCCO)c12	146 to 147 °C
Cc1nnc2ccc(-c3cccc(Cl)c3)nn12	165 to 167 °C
COCCNC(=O)c1ccc(NS(=O)(=O)c2ccc(F)cc2)cn1	154 °C
Cc1c(C(=O)c2cccs2)cccc1C(C)C(=O)O (stereo unspecified)	100 °C
CCCCCCc1ccc(C=Nc2ccc(C#N)cc2)cc1	32.2 to 33 °C

SMILES	melting point
C=C1C(=O)N(C)CCC1(CC(=O)OC)c1cccc(OC)c1 (stereo unspecified)	85 to 86 °C
COC(=O)C=Cc1cc2ccccc2nc1Cl	153 to 154 °C
O=Cc1cc(O)c(O)c(C=O)c1	192 to 195 °C
CCCCCC(=O)Nc1ccc2nnc(C(=O)OCC)c(O)c2c1	265 to 266 °C
CCN1C(=O)C(C)(C)c2ccc(C(=O)Nc3ccncc3)cc21	209 to 211 °C
CNc1ccc(C(=O)NCCC(=O)O)cc1[N+](=O)[O-]	187 to 190 °C
Cc1nc2c(N)nc3ccccc3c2n1CCC1(O)CCOCC1	> 253 °C
Cc1ccc(-n2cnc(OC(C)C(=O)O)n2)cc1 (stereo unspecified)	163 to 165 °C
Nc1cc(C(=O)O)cc(S(N)(=O)=O)c1NCCc1ccccc1	194 to 195 °C
CC(C)(C)OC(=O)N[C@]1(C)CC[C@H](CS(=O)(=O)c2ccc(S(C)(=O)=O)cc2)C1(C)C	200 to 203 °C
CNc1nc(C)c(-c2nc3ccccc3c(=O)n2-c2ccccc2)s1	209 to 210 °C
Cc1ccc(CC2(O)CCN(CC3=Cc4ccc(O)cc4C3)CC2)cc1	154 to 157 °C
CCCCc1ncc(/C=C(\C)C(=O)O)n1Cc1ccccc1Cl	228 to 229 °C
CC(C)C[C@H](N)C(=O)NCCCCNC(=O)OCc1ccccc1	137 to 139 °C
CN1CCN(c2cccc3c2C[C@H](NC(=O)c2ccc(Cc4ccccc4)cc2)CC3)CC1	191 to 192 °C
Oc1nc2cc(Cl)cc(Cl)c2c(O)c1O	270 to 273 °C
O=C1c2ccc(Nc3ccc(Cl)cc3)cc2C(=O)N1Cc1cccnc1	207 to 210 °C
COc1cc(CC#N)ccc1OCCOc1ccc(F)cc1	126 to 128 °C
COc1cc(Nc2c(C#N)cnc3sc(-c4ccc(CN5CCOCC5)cc4)cc23)c(Cl)cc1Cl	106 to 108 °C
O=C(c1ccccc1F)c1cc2c(c(Cl)c1Cl)OC(CO)C2 (stereo unspecified)	148 to 150 °C
CCCCCCCc1ccc(OC(=O)c2cc3c(s2)CC(CCCCC)C3)cc1 (stereo unspecified)	64 °C
Cc1cncc(C)c1-c1c(C)cc(C=Cc2ccc(C(C#N)C#N)cc2)cc1C	58 to 60 °C
O=C(NS(=O)(=O)NCC1CCCO1)OCc1ccccc1 (stereo unspecified)	96 to 97 °C
O=CN(CCOc1ccc2ccccc2c1)c1ccc(C(=O)C(=O)O)cc1	155 to 156 °C
CCC(CC)c1ccc(Cl)c2nc3n(c12)CCCCN3c1ccc(C(F)(F)F)cc1Br	158 to 160 °C
CN1CCN(c2nc3c(cc2F)c(=O)c(C(=O)O)cn3CCF)CC1	224 to 226 °C

SMILES	melting point
CC1CCc2cc3c(cc21)OCC(=O)CO3 (stereo unspecified)	79 to 80 °C
O=c1[nH]c2ccccc2n1CCCN1CCN(c2n[nH]c3cc(F)ccc23)CC1	236 to 238 °C
Nc1c(NC(=O)CC23CCCN2CCC3)cnc2ccccc12	205 to 209 °C
CCCCNC(=O)NC(N)=O	129 to 131 °C
COc1ccc(N2CCN(c3c(C)c(C)c4c(c3C)C(N3CCc5ccccc5C3)C(C)(C)O4)CC2)cc1 (stereo unspecified)	144 to 145 °C
Cc1cnn(-c2ncc(C(=O)N3Cc4cccn4Cc4ccccc43)c(C(F)(F)F)n2)c1	214 to 217 °C
CCc1noc(C)c1-c1[nH]c2ccccc2c1C(=O)CCC(=O)N(C)C	144 to 148 °C
CON(C)C(=O)c1nc(C(C)(C)C)c(O)c(C(C)(C)C)n1	137 to 138 °C
Oc1cccc2c3ccccc3n(C3CCCCO3)c12 (stereo unspecified)	137 to 140 °C
O=[N+]([O-])c1ccc2c(c1)O[C@@H](CNCc1ccccc1)CO2	98 °C
C=CCCC(F)c1cccc(C2(c3ccc(OC(F)F)cc3)N=C(N)N(C)C2=O)c1 (stereo unspecified)	50 to 55 °C
CCOC(=O)C(CC)Cc1ccc(NC(=O)c2ccc(Cl)cc2)cc1 (stereo unspecified)	119 to 120 °C
COC(=O)C1=Cc2cc(-c3ccc(OC)cc3)ccc2SCC1	117 to 120 °C
CC1=CC(C)(N)NC=C1 (stereo unspecified)	79.5 to 81 °C
O=C(O)C12CC3CC(F)(CC(F)(C3)C1)C2	162 to 164 °C
COC(=O)c1ccc(-c2cccc(C=O)c2)cc1	95 to 97 °C
CON=Cc1ccc2c(c1)ncn2-c1cccc(Br)c1	119 to 120 °C
CC(C)(N)c1ccc(-c2nc(Nc3ccc(CCn4ccnc4)cc3)ncc2Cl)cc1F	112 to 120 °C
Cc1c(Br)cc(Cl)c(NS(=O)(=O)c2n[nH]c(NC=O)n2)c1Cl	> 290 °C
OCc1c(Cl)c(Cl)c(Cl)c(Cl)c1Cl	195 to 196 °C
CCCc1c(OCCCCc2ccc3cc(OCc4ccccc4)c(OCc4ccccc4)cc3c2)ccc(C(=O)OCc2ccccc2)c1O	87 to 89 °C
CCOc1nc2ccccc2nc1C(=O)Nc1ccc(OCCCCN2CCc3cc(OC)c(OC)cc3C2)cc1	182 °C
O=C(N[C@@H](CO)c1nc2cc(Br)ccc2[nH]1)c1ccc(C(=O)N2CCCC2)c(Br)c1	114 to 116 °C
CCN(CC)CCOc1ccc(Nc2ncc3c(n2)N(C)C(=O)N(c2ccccc2C)C3)cc1	132 °C
Cc1c(C2CCC(c3ccccc3)(N(C)C)CC2)[nH]c2ccc(C(F)(F)F)cc12 (stereo unspecified)	204 to 217 °C
COc1ccc(-c2ccc(C#N)cc2C(F)(F)F)cc1C=O	116 to 118 °C

SMILES	melting point
Oc1ccc2c(c1)COc1c-2cc2ccc(O)cc2c1-c1ccsc1	159 to 161 °C
ClC1=NC2CCCc3c(Cl)ccc(c32)N1 (stereo unspecified)	190 to 192 °C
Cc1c(Cl)cccc1NCc1ccccc1Cl	63 to 66 °C
O=C(Nc1ccccc1C(=O)NCc1ccccc1)N[C@@H](Cc1ccc(NC(=O)c2c(Cl)cccc2Cl)cc1)C(=O)O	165 °C
O=C(COCc1cccs1)C12CC3CC(CC(C3)C1)C2	57.2 to 58.3 °C
N#CN=C(Nc1ccc(C#N)c(Br)c1O)Nc1cccc2c1OCO2	164 to 165 °C
CCCC[C@H](NC(=O)[C@H](CC(C)C)NC(=O)c1ccccc1C)C(=O)CSCc1ccco1	118 to 119 °C
CCOC(=O)C(C(=O)OCC)N1CC(N2C(=O)c3ccccc3C2=O)C1=O (stereo unspecified)	149 to 150 °C
CCCN(C(=O)Cl)C(=O)CCl	40 to 44 °C
CCCCCCOc1cccc(N2CC(=O)NC(=O)N2)c1	161 to 163 °C
CCCCn1c(NCCC)nc2ccc(Br)cc2c1=O	71 to 73 °C
CN1CCC(N(C2CC2)S(=O)(=O)c2ccc(Nc3nccc(Nc4ccc(F)cc4)n3)cc2)CC1	218 °C
O=[N+]([O-])c1cc(Cl)c(Cl)cc1-n1cccc1	69.5 to 70.5 °C
COc1ccc(CN2C(=O)C(C)(c3cc(C(=O)N(C)CC(F)(F)F)ccc3Cl)c3cc(Cl)ccc32)c(OC)c1 (stereo unspecified)	89 °C
CC(=O)OC[C@@H](C)[C@H]1CC[C@H]2[C@@H]3C=CC4=CC(=O)C=C[C@]4(C)[C@H]3CC[C@]12C	90 to 93 °C
CC(=O)N1CCC(C(O)(c2ccccc2)c2ccc(F)cc2)CC1 (stereo unspecified)	173 to 175 °C
CCCS(=O)(=O)c1ccc(NS(=O)(=O)c2cccs2)c2[nH]c(C(=O)O)cc12	247 to 248 °C
CC(=O)Oc1ccc(-c2cnc(N(S(=O)(=O)Cc3ccccc3)S(=O)(=O)Cc3ccccc3)c(Cc3ccccc3)n2)cc1	84 to 86.5 °C
Cc1cc(-n2ccnc2)c2cccc(OCc3c(Cl)ccc(S(=O)(=O)N4CCC[C@H]4CO)c3Cl)c2n1	76 °C
CCCCc1oc2ccccc2c1C(=O)c1cc(Cl)c(O)c(Cl)c1	110 to 114 °C
CCCCCCc1cc2c(s1)-n1c(C)nnc1CN=C2c1cc(OC)c(OC)c(OC)c1	111 to 113 °C
CC(C)(O)C#Cc1ncn2c1[C@@H]1CCCN1C(=O)c1c(Br)cccc1-2	227 to 228 °C
CCn1c(=O)c(C(N)=O)c(O)c2ccc(C)nc21	240 to 242 °C
